Holding throughout (type): cell-based
Test [1] concerns RT-112 (FGFR3-Tacc3 fusion) cells. The experiment in a line: cell proliferation assay (CellTiterGlo), RT-112 cells. To be noted: 72 hours. The gist of the method:
(§1)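 To assess antiproliferative activity, plated cells receive test compound across a concentration range, with DMSO as vehicle control. Remaining viable cells are quantified from intracellular ATP by luminescence. Growth relative to vehicle-treated cells gives the IC50.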
(In general: ATP-based viability assays read luminescence as a measure of living cells.)

For test [2], the system named is SNU-16 (FGFR2-amplification) cells. As to the kind of experiment: cell proliferation assay (CellTiterGlo), SNU-16 cells. The settings on record: 72 hours. The gist of the method: as §1
In test [3] the test system is DMS-114 (FGFR1 overexpression) cells. As to the kind of experiment: cell proliferation assay (CellTiterGlo), DMS-114 cells. The gist of the method:
as §1

Test [4] has as its system UM-UC-14 (FGFR3-S249C) cells. The experiment in a line: cell proliferation assay (CellTiterGlo), UM-UC-14 cells. Put shortly:
as §1

Setting [5] is: Homo sapiens, RT-112, RT112 cells.

Molecules are shown by their SMILES.

Usually IC50 stands for the concentration needed to halve the response being measured.

Turning to `Cc1nc2ccc(Oc3ccc4ncc(-c5cnn([C@H]6C[C@@H](O)C6)c5)nc4c3Cl)c(F)c2[nH]1` [Compound 148], the half-inhibitory concentration (IC50) is less than 20 nM in test [1] (setting [5]); less than 20 nM in test [2] (Homo sapiens); 20 to 100 nM in test [3] (Homo sapiens, DMS-114, 72 h); less than 20 nM in test [4] (UMUC14, 72 h).

With `Cc1nc2c(F)c(Oc3ccc4ncc(-c5cnn(CC6CC(F)(F)C6)c5)nc4c3Cl)ccc2[nH]1` [Compound 229], the IC50 is 20 to 100 nM in test [1] (setting [5]); 20 to 100 nM in test [2] (Homo sapiens); no less than 400 nM in test [3] (Homo sapiens, DMS-114, 72 h); 20 to 100 nM in test [4] (UMUC14, 72 h).

`COC1CCN(C(=O)Cn2cc(-c3cnc4ccc(Oc5ccc6nc(C)[nH]c6c5)c(Cl)c4n3)cn2)C1` (stereo not drawn) [Compound 277]: the 50% inhibitory concentration (IC50) was 20 to 100 nM in test [1] (setting [5]); 20 to 100 nM in test [2] (Homo sapiens); no less than 400 nM in test [3] (Homo sapiens, DMS-114, 72 h); 100 to 400 nM in test [4] (UMUC14, 72 h).

Regarding `Cc1nc2ccc(Oc3ccc4ncc(-c5cnn(C6(CCO)CCNCC6)c5)nc4c3Cl)cc2[nH]1` [Compound 318], the IC50 in test [1] (setting [5]) was no less than 400 nM; in test [2] (Homo sapiens), no less than 400 nM; in test [3] (Homo sapiens, DMS-114, 72 h) it was no less than 400 nM; in test [4] (UMUC14, 72 h), no less than 400 nM.

Regarding `Cc1nc2ccc(Oc3ccc4ncc(-c5cnn([C@H]6CC7(C[C@@H](O)C7)C6)c5)nc4c3Cl)cc2[nH]1` (stereo partly drawn) [Compound 124], the IC50 in test [1] (RT112 cells) is 20 to 100 nM; in test [2], 20 to 100 nM; in test [3] (72 hours) it was no less than 400 nM; in test [4] (72 hours), 20 to 100 nM.

On to `Cc1nc2ccc(Oc3ccc4ncc(-c5cnn(CC6CC(F)(F)C6)c5)nc4c3Cl)cc2[nH]1` [Compound 387], for which the half-maximal inhibitory concentration (IC50) is 20 to 100 nM in test [1] (setting [5]); 20 to 100 nM in test [2] (Homo sapiens); no less than 400 nM in test [3] (Homo sapiens, DMS-114, 72 h); 20 to 100 nM in test [4] (UMUC14, 72 h).

Regarding `Cc1nc2ccc(Oc3ccc4ncc(-c5cnn(C6CN(C(=O)N7CC(O)C7)C6)c5)nc4c3Cl)cc2[nH]1` [Compound 183], the IC50 is 100 to 400 nM in test [1] (setting [5]); 100 to 400 nM in test [2] (Homo sapiens); no less than 400 nM in test [3] (Homo sapiens, DMS-114, 72 h); 100 to 400 nM in test [4] (UMUC14, 72 h).

Regarding `COC(=O)C(C)(C)n1cc(-c2cnc3ccc(Oc4ccc5nc(C)[nH]c5c4F)c(Cl)c3n2)cn1` [Compound 112], the 50% inhibitory concentration (IC50) in test [1] (setting [5]) was 20 to 100 nM; in test [2] (Homo sapiens) it was less than 20 nM; in test [3] (Homo sapiens, DMS-114, 72 h) it was 100 to 400 nM; in test [4] (UMUC14, 72 h), less than 20 nM.

In the case of `Cc1nc2ccc(Oc3ccc4ncc(-c5cnn(C[C@H]6CCS(=O)(=O)C6)c5)nc4c3Cl)cc2[nH]1` [Compound 311], the half-maximal inhibitory concentration (IC50) in test [1] (setting [5]) is less than 20 nM; in test [2] (Homo sapiens), less than 20 nM; in test [3] (Homo sapiens, DMS-114, 72 h), 100 to 400 nM; in test [4] (UMUC14, 72 h) it was 20 to 100 nM.

With `Cc1nc2ccc(Oc3ccc4ncc(-c5cnn(CC(=O)N6CCOCC6)c5)nc4c3Cl)cc2[nH]1` [Compound 285], the 50% inhibitory concentration (IC50) in test [1] (setting [5]) was 20 to 100 nM; in test [2] (Homo sapiens) it was 20 to 100 nM; in test [3] (Homo sapiens, DMS-114, 72 h) it was no less than 400 nM; in test [4] (UMUC14, 72 h), 20 to 100 nM.

Consider `Cc1nc2ccc(Oc3ccc4ncc(-c5cnn(C6CN(C7CCOCC7)C6)c5)nc4c3Cl)cc2[nH]1` [Compound 238], for which the IC50 in test [1] (setting [5]) was 20 to 100 nM; in test [2] (Homo sapiens), 20 to 100 nM; in test [3] (Homo sapiens, DMS-114, 72 h) it was 100 to 400 nM; in test [4] (UMUC14, 72 h), 20 to 100 nM.

As to `Cc1nc2ccc(Oc3ccc4ncc(-c5cnn(C6CN(CC(=O)N7CC(O)C7)C6)c5)nc4c3Cl)cc2[nH]1` [Compound 235], the 50% inhibitory concentration (IC50) was 20 to 100 nM in test [1] (setting [5]); 20 to 100 nM in test [2] (Homo sapiens); no less than 400 nM in test [3] (Homo sapiens, DMS-114, 72 h); 20 to 100 nM in test [4] (UMUC14, 72 h).

As for `Cc1nc2ccc(Oc3ccc4ncc(-c5cnn(C6CC7(C6)CN(C6COC6)C7)c5)nc4c3Cl)cc2[nH]1` [Compound 218], the half-inhibitory concentration (IC50) was 20 to 100 nM in test [1] (setting [5]); 20 to 100 nM in test [2] (Homo sapiens); 100 to 400 nM in test [3] (Homo sapiens, DMS-114, 72 h); 20 to 100 nM in test [4] (UMUC14, 72 h).

`Cc1nc2ccc(Oc3ccc4ncc(-c5cnn([C@H]6CC7(C[C@@H](O)C7)C6)c5)nc4c3Cl)c(F)c2[nH]1` (stereo partly drawn) [Compound 128]: the half-maximal inhibitory concentration (IC50) is less than 20 nM in test [1] (RT112 cells), less than 20 nM in test [2], 100 to 400 nM in test [3] (72 hours) and less than 20 nM in test [4] (72 hours).

With `Cc1nc2ccc(Oc3ccc4ncc(-c5cnn([C@H]6C[C@H](O)C6)c5)nc4c3Cl)c(F)c2[nH]1` [Compound 143], the half-inhibitory concentration (IC50) in test [1] (setting [5]) was 100 to 400 nM; in test [2] (Homo sapiens), 100 to 400 nM; in test [3] (Homo sapiens, DMS-114, 72 h), no less than 400 nM; in test [4] (UMUC14, 72 h), no less than 400 nM.

With `Cc1nc2ccc(Oc3ccc4ncc(-c5cnn(C6CCC(F)(F)CC6)c5)nc4c3Cl)cc2o1` [Compound 186], the half-maximal inhibitory concentration (IC50) in test [1] (setting [5]) is no less than 400 nM; in test [2] (Homo sapiens), no less than 400 nM; in test [3] (Homo sapiens, DMS-114, 72 h), no less than 400 nM; in test [4] (UMUC14, 72 h), no less than 400 nM.

With `CO[C@H]1CC[C@H](Cn2cc(-c3cnc4ccc(Oc5ccc6nc(C)[nH]c6c5)c(Cl)c4n3)cn2)CC1` [Compound 335], the 50% inhibitory concentration (IC50) in test [1] (setting [5]) is 20 to 100 nM; in test [2] (Homo sapiens) it was 20 to 100 nM; in test [3] (Homo sapiens, DMS-114, 72 h), no less than 400 nM; in test [4] (UMUC14, 72 h), 20 to 100 nM.

For `CNC(=O)N1CCC(n2cc(-c3cnc4ccc(Oc5ccc6nc(C)[nH]c6c5)c(Cl)c4n3)cn2)CC1` [Compound 321], the IC50 in test [1] (setting [5]) was 20 to 100 nM; in test [2] (Homo sapiens), 20 to 100 nM; in test [3] (Homo sapiens, DMS-114, 72 h), no less than 400 nM; in test [4] (UMUC14, 72 h), 20 to 100 nM.

On to `Cc1nc2cc(Oc3ccc4ncc(-c5cnn(CC6(O)CCNCC6)c5)nc4c3Cl)ccc2[nH]1` [Compound 349], for which the IC50 in test [1] (setting [5]) was no less than 400 nM; in test [2] (Homo sapiens) it was no less than 400 nM; in test [3] (Homo sapiens, DMS-114, 72 h), no less than 400 nM; in test [4] (UMUC14, 72 h), no less than 400 nM.

On to `CCS(=O)(=O)N1CC(CC#N)(n2cc(-c3cnc4ccc(Oc5ccc6nc(C)[nH]c6c5)c(Cl)c4n3)cn2)C1` [Compound 374], for which the 50% inhibitory concentration (IC50) is less than 20 nM in test [1] (setting [5]); 20 to 100 nM in test [2] (Homo sapiens); no less than 400 nM in test [3] (Homo sapiens, DMS-114, 72 h); 20 to 100 nM in test [4] (UMUC14, 72 h).

As to `Cc1nc2ccc(Oc3ccc4ncc(-c5cnn(C6CCN(C(C)C)CC6)c5)nc4c3Cl)cc2[nH]1` [Compound 333], the IC50 in test [1] (setting [5]) is 20 to 100 nM; in test [2] (Homo sapiens), 20 to 100 nM; in test [3] (Homo sapiens, DMS-114, 72 h), no less than 400 nM; in test [4] (UMUC14, 72 h), 20 to 100 nM.

With `Cc1nc2ccc(Oc3ccc4ncc(-c5cnn(C6CC(C)(O)C6)c5)nc4c3Cl)cc2[nH]1` (stereo not drawn) [Compound 250], the half-maximal inhibitory concentration (IC50) is less than 20 nM in test [1] (setting [5]); less than 20 nM in test [2] (Homo sapiens); no less than 400 nM in test [3] (Homo sapiens, DMS-114, 72 h); 20 to 100 nM in test [4] (UMUC14, 72 h).

On to `Cc1nc2cc(Oc3ccc4ncc(-c5cnn(CC6(O)CCN(C7COC7)CC6)c5)nc4c3Cl)ccc2[nH]1` [Compound 248], for which the IC50 in test [1] (setting [5]) is 20 to 100 nM; in test [2] (Homo sapiens), 20 to 100 nM; in test [3] (Homo sapiens, DMS-114, 72 h) it was 100 to 400 nM; in test [4] (UMUC14, 72 h), 20 to 100 nM.

As for `Cc1nc2ccc(Oc3ccc4ncc(-c5cnn(C6CC7CC6CN7C)c5)nc4c3Cl)cc2[nH]1` (stereo not drawn) [Compound 351], the IC50 in test [1] (setting [5]) is 20 to 100 nM; in test [2] (Homo sapiens) it was 20 to 100 nM; in test [3] (Homo sapiens, DMS-114, 72 h), 100 to 400 nM; in test [4] (UMUC14, 72 h) it was 20 to 100 nM.

`Cc1nc2ccc(Oc3ccc4ncc(-c5cnn(CC6CNCCO6)c5)nc4c3Cl)cc2[nH]1` (stereo not drawn) [Compound 273]: the IC50 in test [1] (setting [5]) is 20 to 100 nM; in test [2] (Homo sapiens) it was 20 to 100 nM; in test [3] (Homo sapiens, DMS-114, 72 h), no less than 400 nM; in test [4] (UMUC14, 72 h) it was 20 to 100 nM.

For `Cc1nc2ccc(Oc3ccc4ncc(-c5cnn([C@H]6CCN(CC(F)(F)F)C[C@@H]6F)c5)nc4c3Cl)cc2[nH]1` [Compound 262], the IC50 in test [1] (setting [5]) was 20 to 100 nM; in test [2] (Homo sapiens), 20 to 100 nM; in test [3] (Homo sapiens, DMS-114, 72 h), no less than 400 nM; in test [4] (UMUC14, 72 h) it was 100 to 400 nM.

Regarding `Cc1nc2ccc(Oc3ccc4ncc(-c5cnn(CC(=O)N6CCC(F)C6)c5)nc4c3Cl)cc2[nH]1` (stereo not drawn) [Compound 290], the half-maximal inhibitory concentration (IC50) was 20 to 100 nM in test [1] (setting [5]); 20 to 100 nM in test [2] (Homo sapiens); no less than 400 nM in test [3] (Homo sapiens, DMS-114, 72 h); 20 to 100 nM in test [4] (UMUC14, 72 h).

The record behind these values is patent publication US20240368181A1, “QUINOXALINE DERIVATIVES AND USES THEREOF” (Black Diamond Therapeutics, Inc., priority 2021, published 2024).
